A short description of experiment [1]: 3H-heparin binding assay (affinity and capacity). To be noted: for Heparin Capacity: heparin bound at saturation; for Kd: read-out: Heparin Affinity. The essentials:
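Peptide fragments were bound to PVDF-membrane wells and incubated with 3H-heparin in blocking buffer for 1 h at 4 °C. After washing, bound radioactivity was quantified by liquid scintillation counting, with BSA background subtracted; rBPI23 served as positive control.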

The next experiment concerns C. albicans. The experiment in a line: Radial diffusion fungicidal assay, Candida albicans. It counts as cell-based. To be noted: radial diffusion.
The next experiment concerns Staphylococcus aureus. The experiment in a line: Radial diffusion bactericidal assay, Staphylococcus aureus. It counts as cell-based. To be noted: S. aureus; for pmol added to well to achieve a 30 mm^2 bactericidal zone, S. aureus: radial diffusion, PROBIT analysis.
The subject of experiment [2] is rough mutant E. coli J5 bacteria. The experiment in a line: Radial diffusion bactericidal assay, E. coli J5. In kind it is cell-based. To be noted: for pmol added to well to achieve a 30 mm^2 bactericidal zone, E. coli J5: radial diffusion, PROBIT analysis, E. coli J5 (rough). The procedure, abridged:
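Log-phase bacteria, washed in 10 mM sodium phosphate pH 7.4, were seeded at 4×10^6 CFU/mL in underlayer agarose. BPI fragments (5 or 10 μL) went into 3 mm wells for 3 h at 37° C., then overlayer agarose was added. After overnight 37° C. incubation, clearing zones were measured by micrometer.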

The next experiment relates to RAW 264.7 cells. Put plainly: LPS neutralization cellular proliferation assay, RAW 264.7 cells. In kind it is cell-based, mouse. The procedure, abridged: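 Mouse RAW 264.7 cells were primed 24 h with 50U/mL mouse γ-interferon, then exposed about 15 h to E. coli O113 LPS in serum-free RPMI with or without BPI peptides at 25 ng/mL–50 μg/mL. Proliferation was quantified by [^3H]-thymidine uptake, 1 μCi/well, added at 5 h.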

Experiment [3] concerns E. coli 0111:B4 (smooth) bacteria. Put plainly: Radial diffusion bactericidal assay, E. coli 0111:B4. In kind it is cell-based. To be noted: for pmol added to well to achieve a 30 mm^2 bactericidal zone, E. coli O111:B4: radial diffusion, PROBIT analysis, E. coli O111:B4 (smooth).
The subject of the next experiment is Candida albicans. In kind it is cell-based.

The values that follow come from US20040023884A1, “Biologically active peptides from functional domains of bactericidal/permeability-increasing protein and uses thereof” (priority 1993, published 2004).

≈ marks a conversion by molar mass, not a printed value. Square brackets hold non-standard residues; d marks the D form. Ends that are not written are not given here. Peptide text beside a SMILES is read from it. 1Nal = N[C@@H](Cc1cccc2ccccc12)C(=O)O Where only a bound is given, the exact number is not on record here.

For `CC[C@H](C)[C@H](NC(=O)[C@H](CC(C)C)NC(=O)[C@H](Cc1cccc2ccccc12)NC(=O)CNC(=O)[C@@H](NC(=O)[C@H](CCCCN)NC(=O)[C@H](CO)NC(=O)[C@@H](N)CCCCN)C(C)C)C(=O)N[C@@H](CCC(N)=O)C(=O)N[C@@H](CC(C)C)C(=O)N[C@@H](Cc1ccccc1)C(=O)N[C@@H](Cc1c[nH]cn1)C(=O)N[C@@H](CCCCN)C(=O)N[C@@H](CCCCN)C(=O)O` [BPI.83] (H-KSKVG[1Nal]LIQLFHKK-OH), in experiment [1], the “Heparin Capacity” value came out at 253.3 ng and the Kd came out at 0.41 µM. Moreover, the “C. albicans: pmol required for 30 mm^2 zone” value (“C. albicans: pmol required” below) in the experiment with C. albicans came to 1804.26 pmol. In addition, the “pmol added to well to achieve a 30 mm^2 bactericidal zone, S. aureus” value (from here on “pmol added to well … S. aureus”) with Staphylococcus aureus is 116,500.54 pmol. Moreover, the “pmol added to well to achieve a 30 mm^2 bactericidal zone, E. coli J5” value (“pmol added to well … E. coli J5” below) in experiment [2] amounted to 164.84 pmol. Also, the “EC50 (peptide concentration at which the growth inhibitory effect of LPS was reversed by 50%)” value with RAW 264.7 cells amounted to 1.2 ± 0.1 mg/L. Also, the “pmol added to well to achieve a 30 mm^2 bactericidal zone, E. coli O111:B4” value (“pmol added to well … E. coli O111:B4” below) in experiment [3] is 51,147.55 pmol.
As to `CC[C@H](C)[C@H](N)C(=O)N[C@@H](CCCCN)C(=O)N[C@H](C(=O)N[C@@H](CO)C(=O)NCC(=O)N[C@@H](CCCCN)C(=O)N[C@@H](Cc1cccc2ccccc12)C(=O)N[C@@H](CCCCN)C(=O)N[C@@H](C)C(=O)N[C@@H](CCC(N)=O)C(=O)N[C@@H](Cc1ccccc1)C(=O)N[C@@H](CCCNC(=N)N)C(=O)N[C@@H](Cc1ccccc1)C(=O)N[C@@H](CC(C)C)C(=O)N[C@@H](CCCCN)C(=O)N[C@@H](CCCCN)C(=O)N[C@@H](CO)C(=O)N[C@@H](CCCCN)C(=O)N[C@H](C(=O)NCC(=O)N[C@@H](Cc1c[nH]c2ccccc12)C(=O)N[C@@H](CC(C)C)C(=O)N[C@H](C(=O)N[C@@H](CCC(N)=O)C(=O)N[C@@H](CC(C)C)C(=O)N[C@@H](Cc1ccccc1)C(=O)N[C@@H](Cc1c[nH]cn1)C(=O)N[C@@H](CCCCN)C(=O)N[C@@H](CCCCN)C(=O)O)[C@@H](C)CC)C(C)C)[C@@H](C)CC` [BPI.93] (H-IKISGK[1Nal]KAQFRFLKKSKVGWLIQLFHKK-OH), in experiment [1], the “Heparin Capacity” value stood at 291.5 ng and the Kd was found to be 0.387 µM. Also, in the experiment with C. albicans, the “C. albicans: pmol required” value was over 980.27 pmol. Besides, the “pmol added to well … S. aureus” value with Staphylococcus aureus is listed as “b (no detectable activity up to 5 μg/well)”. For the same compound, the “pmol added to well … E. coli J5” value in experiment [2] was found to be 212.87 pmol. For the same compound, in the experiment with RAW 264.7 cells, the “EC50 (peptide concentration at which the growth inhibitory effect of LPS was reversed by 50%)” value was found to be 0.9 ± 0.25 mg/L and the “IC50 (peptide concentration at which RAW cell growth was inhibited by 50%)” value came out at 9.7 ± 0.1 mg/L (≈ 2.73 µM). Moreover, the “pmol added to well … E. coli O111:B4” value in experiment [3] is listed as 10,118.98 pmol.
For the compound KSKVGWLIFLFHKK [BPI.91], in experiment [1], the “Heparin Capacity” value amounted to 181.2 ng and the Kd came to 0.288 µM. The “C. albicans: pmol required” value in the experiment on C. albicans was over 3843.54 pmol. Besides, in the experiment on Staphylococcus aureus, the “pmol added to well … S. aureus” value is reported as “b (no detectable activity up to 5 μg/well)”. Moreover, the “pmol added to well … E. coli J5” value in experiment [2] was 21,014.73 pmol. For the same compound, in the experiment on RAW 264.7 cells, the “IC50 (peptide concentration at which RAW cell growth was inhibited by 50%)” value is “— (No proliferation decrease up to 50 μg/ml)”. In experiment [3], the “pmol added to well … E. coli O111:B4” value is listed as “b (no detectable activity up to 5 μg/well)”.
In the case of KSKVGWLILLFHKK [BPI.86], in experiment [1], the “Heparin Capacity” value is 208.4 ng and the Kd was found to be 0.383 µM. The “C. albicans: pmol required” value with C. albicans is over 2048.45 pmol. In addition, the “pmol added to well … S. aureus” value in the experiment on Staphylococcus aureus is given as 459,138.55 pmol. The “pmol added to well … E. coli J5” value in experiment [2] was 1,519.64 pmol. Besides, the “EC50 (peptide concentration at which the growth inhibitory effect of LPS was reversed by 50%)” value with RAW 264.7 cells is 0.13 ± 0.04 mg/L. Also, the “pmol added to well … E. coli O111:B4” value in experiment [3] was “b (no detectable activity up to 5 μg/well)”.
Consider KSKVGWLIQLFHKF [BPI.96], for which, in experiment [1], the “Heparin Capacity” value was determined as 203.8 ng and the Kd turned out to be 0.469 µM. For the same compound, the “C. albicans: pmol required” value in the experiment on C. albicans came out at 1856.08 pmol. Moreover, in the experiment with Staphylococcus aureus, the “pmol added to well … S. aureus” value is listed as 91,585.37 pmol. The “pmol added to well … E. coli J5” value in experiment [2] is on record as 378.33 pmol. Further, in the experiment on RAW 264.7 cells, the “EC50 (peptide concentration at which the growth inhibitory effect of LPS was reversed by 50%)” value came to 1.6 ± 0.2 mg/L and the “IC50 (peptide concentration at which RAW cell growth was inhibited by 50%)” value was found to be 18.8 ± 0.8 mg/L. Moreover, the “pmol added to well … E. coli O111:B4” value in experiment [3] is 8,691.85 pmol.
Turning to KSKVGWLIQLFHKKKWKAQKRFLK [BPI.74], in experiment [1], the “fold increase in heparin affinity vs BPI.30” value worked out at 2 fold, the “fold reduction in heparin binding capacity vs BPI.30” value turned out to be 2 fold, the “Heparin Capacity” value is given as 207.3 ng and the Kd stood at 0.218 µM. Further, the “C. albicans: pmol required” value in the experiment on C. albicans is listed as over 2148.21 pmol. In the experiment on Staphylococcus aureus, the “fold lower bactericidal activity than BPI.30” value is recorded as 3.5 fold and the “pmol added to well … S. aureus” value was 4,290.18 pmol. For the same compound, in experiment [2] (E. coli J5), the “fold lower bactericidal activity than BPI.30” value is 10 fold. Moreover, the “pmol added to well … E. coli J5” value in experiment [2] amounted to 731.94 pmol. For the same compound, in the experiment with RAW 264.7 cells, the “EC50 (peptide concentration at which the growth inhibitory effect of LPS was reversed by 50%)” value turned out to be 2.7 ± 0.3 mg/L and the “IC50 (peptide concentration at which RAW cell growth was inhibited by 50%)” value is 18.8 ± 0.8 mg/L. In addition, in experiment [3] (E. coli 0111:B4), the “fold lower bactericidal activity than BPI.30” value stood at 50 fold. The “pmol added to well … E. coli O111:B4” value in experiment [3] is 30,610.36 pmol.
With KSKVGWLIQLWHKK [BPI.82], in experiment [1], the “Heparin Capacity” value is 163.1 ng and the Kd is 0.427 µM. Besides, in the experiment on C. albicans, the “C. albicans: pmol required” value is given as 518.43 pmol. In addition, the “pmol added to well … S. aureus” value in the experiment with Staphylococcus aureus is listed as 11,027.00 pmol. Further, the “MIC C. alb” value against Candida albicans came out at 3.13 mg/L. Also, the “pmol added to well … E. coli J5” value in experiment [2] turned out to be 171.32 pmol. Moreover, in the experiment on RAW 264.7 cells, the “EC50 (peptide concentration at which the growth inhibitory effect of LPS was reversed by 50%)” value was 0.8 ± 0.1 mg/L and the “IC50 (peptide concentration at which RAW cell growth was inhibited by 50%)” value was 18.8 ± 0.8 mg/L. The “pmol added to well … E. coli O111:B4” value in experiment [3] is 3,681.30 pmol.
KSKVKWLIQLFHKK [BPI.97]: in experiment [1], the “Heparin Capacity” value turned out to be 252.2 ng and the Kd is 0.765 µM. Also, the “C. albicans: pmol required” value with C. albicans amounted to 213.22 pmol. In the experiment with Staphylococcus aureus, the “pmol added to well … S. aureus” value was “b (no detectable activity up to 5 μg/well)”. In addition, the “MIC C. alb” value against Candida albicans is 3.13 mg/L. In addition, the “pmol added to well … E. coli J5” value in experiment [2] is 295.58 pmol. The “pmol added to well … E. coli O111:B4” value in experiment [3] is on record as “b (no detectable activity up to 5 μg/well)”.
